# Measured values reported in publication PMC7571217, “Adenosine Receptor Ligands: Coumarin–Chalcone Hybrids as Modulating Agents on the Activity of hARs” (Molecules, 2020).
# Molecular target: T1, hA3 (Homo sapiens, UniProt P0DMS8)
# T1 construct: expressed in transfected cells; host or cells: CHO cells (stably transfected)
# T1 sequence (P0DMS8 1-318): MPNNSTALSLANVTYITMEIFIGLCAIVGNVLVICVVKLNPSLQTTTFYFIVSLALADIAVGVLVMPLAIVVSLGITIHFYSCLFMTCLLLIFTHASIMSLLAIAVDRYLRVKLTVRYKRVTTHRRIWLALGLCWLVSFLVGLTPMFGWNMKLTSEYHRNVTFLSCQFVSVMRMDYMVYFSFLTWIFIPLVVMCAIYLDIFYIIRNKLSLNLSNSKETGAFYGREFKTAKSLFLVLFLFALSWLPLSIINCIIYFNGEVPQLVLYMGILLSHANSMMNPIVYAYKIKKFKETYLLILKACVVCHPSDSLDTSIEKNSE
# Test: Radioligand competition binding, [3H]HEMADO, hA3 in CHO cells
# Conditions: [3H]HEMADO 1 nM, geometric mean of 3 experiments (95% CI)
# Protocol: (§1) (5′-N-ethylcarboxamidoadenosine) to hA2A; and specific binding of [^3H]HEMADO (2-(1-hexynyl)-N^6-methyladenosine) to hA3. […] Due to the lack of a suitable radioligand for the hA2B receptor, the potency of antagonists at the hA2B receptor was determined by inhibition of NECA-stimulated adenylyl cyclase activity with increasing concentrations of antagonist.
# (§2) The binding affinity for hA1, hA2A, hA3 of the synthetized compounds was evaluated using radioligand competition experiments in CHO cells that were stably transfected with the individual receptor subtypes. […] Due to the lack of a suitable radioligand for the hA2B receptor, the potency of antagonists at the hA2B receptor (expressed on CHO cells) was determined by inhibition of NECA-stimulated adenylyl cyclase activity. The IC50 for inhibition of cAMP (cyclic adenosine monophosphate) production was determined and converted to Ki values using the Cheng and Prusoff equation [56].
# (§3) Ki values (dissociation constants) were determined in radioligand competition experiments with 7–8 different concentrations of test compound and each concentration was tested in duplicate. […] The program Prism 6 (GraphPad Software) was used for the analysis of the competition curves.
row,Compound,Ki [µM]
1,O=C(c1ccc(O)c(O)c1)c1cc2cc(O)ccc2oc1=O [Compound 6],> 60
2,O=C(c1ccc(O)c(O)c1)c1cc2c(O)cc(O)cc2oc1=O [Compound 7],> 30
3,"COc1cc(OC)c2cc(C(=O)c3ccc(OC)c(OC)c3)c(=O)oc2c1 [Compound 3, 5,7-Dimethoxy-3-(3′,4′-dimethoxybenzoyl)coumarin]",9.03
4,"COc1ccc2oc(=O)c(C(=O)c3ccc(OC)c(OC)c3)cc2c1 [Compound 2, 6-Methoxy-3-(3′,4′-dimethoxybenzoyl)coumarin]",> 100
5,"O=C(c1ccc(O)cc1)c1cc2c(O)cc(O)cc2oc1=O [Compound 8, 5,7-Dihydroxy-3-(4′-hydroxybenzoyl)coumarin]",> 60
6,O=C(c1ccc(O)c(O)c1)c1cc2ccccc2oc1=O [Compound 5],34.5
7,"COc1ccc(C(=O)c2cc3ccccc3oc2=O)cc1OC [Compound 1, 3-(3′,4′-Dimethoxybenzoyl)coumarin]",> 100
8,"COc1ccc(C(=O)c2cc3c(OC)cc(OC)cc3oc2=O)cc1 [Compound 4, 5,7-Dimethoxy-3-(4′-methoxybenzoyl)coumarin]",2.49

# Test system: not given
# Test: not given
# Conditions: not given
row,Compound,melting point [°C]
1,"COc1cc(OC)c2cc(C(=O)c3ccc(OC)c(OC)c3)c(=O)oc2c1 [Compound 3, 5,7-Dimethoxy-3-(3′,4′-dimethoxybenzoyl)coumarin]",210 to 211
2,"COc1ccc2oc(=O)c(C(=O)c3ccc(OC)c(OC)c3)cc2c1 [Compound 2, 6-Methoxy-3-(3′,4′-dimethoxybenzoyl)coumarin]",202 to 203
3,"O=C(c1ccc(O)cc1)c1cc2c(O)cc(O)cc2oc1=O [Compound 8, 5,7-Dihydroxy-3-(4′-hydroxybenzoyl)coumarin]",290 to 292
4,"COc1ccc(C(=O)c2cc3ccccc3oc2=O)cc1OC [Compound 1, 3-(3′,4′-Dimethoxybenzoyl)coumarin]",190 to 191
5,"COc1ccc(C(=O)c2cc3c(OC)cc(OC)cc3oc2=O)cc1 [Compound 4, 5,7-Dimethoxy-3-(4′-methoxybenzoyl)coumarin]",174 to 175

# Molecular target: hA1 (Homo sapiens, UniProt P30542)
# Test: biochemical
# Conditions: not given
# Protocol: as §1, §2, §3
# hA1, sequence (P30542 whole entry): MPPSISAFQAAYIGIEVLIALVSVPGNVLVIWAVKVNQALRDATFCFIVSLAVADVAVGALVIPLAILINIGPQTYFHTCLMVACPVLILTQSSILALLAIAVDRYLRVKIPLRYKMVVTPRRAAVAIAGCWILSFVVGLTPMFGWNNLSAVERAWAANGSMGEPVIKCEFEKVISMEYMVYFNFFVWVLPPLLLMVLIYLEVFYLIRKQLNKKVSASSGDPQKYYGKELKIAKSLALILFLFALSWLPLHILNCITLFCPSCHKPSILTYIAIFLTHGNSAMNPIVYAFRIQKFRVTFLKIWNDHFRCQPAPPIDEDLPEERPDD
row,Compound,Ki [µM]
1,O=C(c1ccc(O)c(O)c1)c1cc2cc(O)ccc2oc1=O [Compound 6],54
2,O=C(c1ccc(O)c(O)c1)c1cc2c(O)cc(O)cc2oc1=O [Compound 7],17.7
3,"COc1cc(OC)c2cc(C(=O)c3ccc(OC)c(OC)c3)c(=O)oc2c1 [Compound 3, 5,7-Dimethoxy-3-(3′,4′-dimethoxybenzoyl)coumarin]",> 30
4,"COc1ccc2oc(=O)c(C(=O)c3ccc(OC)c(OC)c3)cc2c1 [Compound 2, 6-Methoxy-3-(3′,4′-dimethoxybenzoyl)coumarin]",> 100
5,"O=C(c1ccc(O)cc1)c1cc2c(O)cc(O)cc2oc1=O [Compound 8, 5,7-Dihydroxy-3-(4′-hydroxybenzoyl)coumarin]",29.1
6,O=C(c1ccc(O)c(O)c1)c1cc2ccccc2oc1=O [Compound 5],39.5
7,"COc1ccc(C(=O)c2cc3ccccc3oc2=O)cc1OC [Compound 1, 3-(3′,4′-Dimethoxybenzoyl)coumarin]",> 100
8,"COc1ccc(C(=O)c2cc3c(OC)cc(OC)cc3oc2=O)cc1 [Compound 4, 5,7-Dimethoxy-3-(4′-methoxybenzoyl)coumarin]",> 100

# Molecular target: T1, hA3
# Test: not given
# Conditions: radioligand used at 1 nM; ref [44],[45]; cited from earlier work
row,Compound,Kd [µM]
1,"CCCCC#Cc1nc(NC)c2ncn([C@@H]3O[C@H](CO)[C@@H](O)[C@H]3O)c2n1 [[^3H]HEMADO, 2-(1-hexynyl)-N^6-methyladenosine]",0.0012

# Molecular target: T2, hA2A (Homo sapiens, UniProt P29274)
# T2 construct: expressed in transfected cells; host or cells: CHO cells (stably transfected)
# Test: Radioligand competition binding, [3H]NECA, hA2A in CHO cells
# Conditions: [3H]NECA 10 nM
# Protocol: as §1, §2, §3
# T2 sequence (P29274 whole entry): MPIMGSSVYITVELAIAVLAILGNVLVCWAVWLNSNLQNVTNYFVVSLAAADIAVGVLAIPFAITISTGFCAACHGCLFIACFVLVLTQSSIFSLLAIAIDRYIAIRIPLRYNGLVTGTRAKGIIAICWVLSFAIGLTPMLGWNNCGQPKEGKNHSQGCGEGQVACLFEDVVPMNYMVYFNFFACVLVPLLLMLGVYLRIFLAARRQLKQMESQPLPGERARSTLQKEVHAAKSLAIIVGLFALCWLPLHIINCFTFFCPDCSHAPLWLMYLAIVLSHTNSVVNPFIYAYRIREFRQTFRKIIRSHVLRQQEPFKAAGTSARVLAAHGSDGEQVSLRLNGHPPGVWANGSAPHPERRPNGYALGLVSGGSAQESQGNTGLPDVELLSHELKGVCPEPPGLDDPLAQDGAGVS
row,Compound,Ki [µM]
1,"COc1ccc2oc(=O)c(C(=O)c3ccc(OC)c(OC)c3)cc2c1 [Compound 2, 6-Methoxy-3-(3′,4′-dimethoxybenzoyl)coumarin]",> 100
2,"COc1ccc(C(=O)c2cc3ccccc3oc2=O)cc1OC [Compound 1, 3-(3′,4′-Dimethoxybenzoyl)coumarin]",> 100
